Assay results taken from US11925629B2, “Heterocyclic inhibitors of ERK1 and ERK2 and their use in the treatment of cancer” (Asana Biosciences, LLC, priority 2015, dated 2024).
Like-named read-outs stand apart in the source and are kept apart here.

How the values were obtained:
Assay type in all cases: cell-based, human
[1] = tested on: phosphorylation of RSK1(S380) (the downstream target of ERK1/2); assay: Phospho-RSK1(S380) ELISA assay in HT-29 cells; details: Homo sapiens, HT-29, HT29 cells, read-out: Mechanistic Cell Assay RSK1 Phos HT29 IC50
In short: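 IC50 values derive from a variable-slope sigmoidal fit of sandwich-ELISA signal (450 nm) for RSK1 Ser380 phosphorylation. The cells were B-RafV600E HT-29 colorectal line, exposed to serially diluted compound for 2 h after overnight seeding, then lysed at 4° C.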

[2] = tested on: HCT116 (colorectal carcinoma, K Ras G13D) cells; assay: Cell proliferation (Alamar Blue) assay, HCT116; details: Homo sapiens, HCT-116, HCT116 cells
In short: (§1)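 After overnight plating (16-24 h), cells were treated for 72 h with compound dilutions spanning roughly 0.0005 to 10 uM. Proliferation was measured by Alamar Blue fluorescence and IC50 values derived from variable-slope dose-response curves.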

[3] = tested on: HT-29 (colorectal carcinoma, B-RafV600E) cells; assay: Cell proliferation (Alamar Blue) assay, HT-29; details: Homo sapiens, HT-29, HT29 cells
In short: as §1

Row | IC50 ([1]; phospho-RSK1(S380)) [nM] | IC50 [2] [nM] | IC50 [3] [nM] | IC50 [1] [nM] | SMILES
1 | 100 to 250 | 250 to 500 | 100 to 250 |  | Cc1cnc(Nc2ccc(N3CCOCC3)cc2)nc1-n1ccc(C(=O)NC(CO)c2cccc(Cl)c2)c1 (stereo not drawn) [Example 205, N-(1-(3-chlorophenyl)-2-hydroxyethyl)-1-(5-methyl-2-((4-morpholinophenyl)amino)pyrimidin-4-yl)-1H-pyrrole-3-carboxamide]
2 | 500 to 2500 | > 2500 | 250 to 500 |  | Cc1cnc(Nc2ccc(C3CCNCC3)cc2)nc1-n1ccc(C(=O)NC(CO)c2cccc(Cl)c2)c1 (stereo not drawn) [Example 215, N-(1-(3-chlorophenyl)-2-hydroxyethyl)-1-(5-methyl-2-((4-(piperidin-4-yl)phenyl)amino)pyrimidin-4-yl)-1H-pyrrole-3-carboxamide]
3 | 250 to 500 | 500 to 2500 | 100 to 250 |  | CC[C@@H](CO)Nc1ncc(C)c(-n2cnc(C(=O)N[C@H](CO)c3cccc(Cl)c3)c2)n1 [Example 220, N-((S)-1-(3-chlorophenyl)-2-hydroxyethyl)-1-(2-(((S)-1-hydroxybutan-2-yl)amino)-5-methylpyrimidin-4-yl)-1H-imidazole-4-carboxamide]
4 | 100 to 250 | 500 to 2500 | 250 to 500 |  | Cc1cnc(NC2CCOCC2)nc1-n1cnc(C(=O)N[C@@H](CN)c2cc(F)cc(Cl)c2)c1 [Example 276, (R)-N-(2-amino-1-(3-chloro-5-fluorophenyl)ethyl)-1-(5-methyl-2-((tetrahydro-2H-pyran-4-yl)amino)pyrimidin-4-yl)-1H-imidazole-4-carboxamide]
5 | 500 to 2500 | 250 to 500 | 250 to 500 |  | Cc1cnc(Nc2ccnn2C)nc1-n1cnc(C(=O)N[C@H](CO)c2cccc(Cl)c2)c1 [Example 277, (S)-N-(1-(3-chlorophenyl)-2-hydroxyethyl)-1-(5-methyl-2-((1-methyl-1H-pyrazol-5-yl)amino)pyrimidin-4-yl)-1H-imidazole-4-carboxamide]
6 | 100 to 250 | > 2500 | 500 to 2500 |  | Cc1cnc(NC2CCOCC2)nc1-n1cnc(C(=O)NCc2nccs2)c1 [Example 281, 1-(5-methyl-2-((tetrahydro-2H-pyran-4-yl)amino)pyrimidin-4-yl)-N-(thiazol-2-ylmethyl)-1H-imidazole-4-carboxamide]
7 | 500 to 2500 | 500 to 2500 | 250 to 500 |  | Cc1cnc(NC2CCOCC2)nc1-n1cnc(C(=O)NCc2sccc2CO)c1 [Example 284, N-((3-(hydroxymethyl)thiophen-2-yl)methyl)-1-(5-methyl-2-((tetrahydro-2H-pyran-4-yl)amino)pyrimidin-4-yl)-1H-imidazole-4-carboxamide]
8 | ≤ 100 | ≤ 100 | ≤ 100 |  | Cc1cnc(NC2CCC(F)(F)CC2)nc1-n1cnc(C(=O)N[C@H](CN)c2cccc(Cl)c2)c1 [Example 286, (S)-N-(2-amino-1-(3-chlorophenyl)ethyl)-1-(2-((4,4-difluorocyclohexyl)amino)-5-methylpyrmidin-4-yl)-1H-imidazole-4-carboxamide]
9 | 100 to 250 | ≤ 100 | ≤ 100 |  | Cc1cnc(NC2CC(F)(F)C2)nc1-n1cnc(C(=O)N[C@H](CN)c2cc(F)cc(Cl)c2)c1 [Example 288, (S)-N-(2-amino-1-(3-chloro-5-fluorophenyl)ethyl)-1-(2-((3,3-difluorocyclobutyl)amino)-5-methylpyrimidin-4-yl)-1H-imidazole-4-carboxamide]
10 | 100 to 250 | ≤ 100 | ≤ 100 |  | Cc1cnc(NC2CCOCC2)nc1-n1cnc(C(=O)N[C@H](CNCc2ccc[nH]2)c2cccc(Cl)c2)c1 [Example 306, (S)-N-(2-(((1H-pyrrol-2-yl)methyl)amino)-1-(3-chlorophenyl)ethyl)-1-(5-methyl-2-((tetrahydro-2H-pyran-4-yl)amino)pyrimidin-4-yl)-1H-imidazole-4-carboxamide]
11 |  | 500 to 2500 | 250 to 500 | 500 to 2500 | Cc1cnc(NC2CCOCC2)nc1-n1cnc(C(=O)NCc2cccc(Cl)c2F)c1 [Example 309, N-(3-chloro-2-fluorobenzyl)-1-(5-methyl-2-((tetrahydro-2H-pyran-4-yl)amino)pyrimidin-4-yl)-1H-imidazole-4-carboxamide]

Second part, the compound before the results:

Row | SMILES | IC50 ([1]; phospho-RSK1(S380)) [nM] | IC50 [2] [nM] | IC50 [3] [nM] | IC50 [1] [nM]
12 | NCC(NC(=O)c1ccn(-c2ccnc(Nc3ccc(F)cc3)c2)c1)c1ccccc1 (stereo not drawn) [Example 206, N-(2-amino-1-phenylethyl)-1-(2-((4-fluorophenyl)amino)pyridin-4-yl)-1H-pyrrole-3-carboxamide] | 500 to 2500 | > 2500 | 500 to 2500 | 
13 | Cc1cccc([C@@H](CO)NC(=O)c2ccn(-c3nc(N[C@H]4CCOC4)ncc3C)c2)n1 [Example 207, N-((S)-2-hydroxy-1-(6-methylpyridin-2-yl)ethyl)-1-(5-methyl-2-(((S)-tetrahydrofuran-3-yl)amino)pyrimidin-4-yl)-1H-pyrrole-3-carboxamide] | 500 to 2500 | > 2500 | 250 to 500 | 
14 | Cc1cnc(N[C@H]2CCOC2)nc1-n1ccc(C(=O)N(C)C(CO)c2cccc(Cl)c2)c1 (stereo partly drawn) [Example 212, N-(1-(3-chlorophenyl)-2-hydroxyethyl)-N-methyl-1-(5-methyl-2-(((S)-tetrahydrofuran-3-yl)amino)pyrimidin-4-yl)-1H-pyrrole-3-carboxamide] | 500 to 2500 | > 2500 | 500 to 2500 | 
15 | Cc1cnc(Nc2ccc(F)c(N3CCNCC3)c2)nc1-n1ccc(C(=O)NC(CO)c2cccc(Cl)c2)c1 (stereo not drawn) [Example 213, N-(1-(3-chlorophenyl)-2-hydroxyethyl)-1-(2-((4-fluoro-3-(piperazin-1-yl)phenyl)amino)-5-methylpyrimidin-4-yl)-1H-pyrrole-3-carboxamide] | 250 to 500 | 250 to 500 | 100 to 250 | 
16 | Cc1cnc(NC2CCNCC2)nc1-n1cnc(C(=O)NC(CO)c2cccc(Cl)c2)c1 (stereo not drawn) [Example 214, N-(1-(3-chlorophenyl)-2-hydroxyethyl)-1-(5-methyl-2-(piperidin-4-ylamino)pyrimidin-4-yl)-1H-imidazole-4-carboxamide] | > 2500 | > 2500 | > 2500 | 
17 | Cc1cnc(Nc2ccc(C3CCNCC3)c(F)c2)nc1-n1ccc(C(=O)NC(CO)c2cccc(Cl)c2)c1 (stereo not drawn) [Example 216, N-(1-(3-chlorophenyl)-2-hydroxyethyl)-1-(2-((3-fluoro-4-(piperidin-4-yl)phenyl)amino)-5-methylpyrimidin-4-yl)-1H-pyrrole-3-carboxamide] | 500 to 2500 | 500 to 2500 | 250 to 500 | 
18 | CC[C@@H](CO)Nc1ncc(C)c(-n2ccc(C(=O)N[C@H](CO)c3cccc(Cl)c3)c2)n1 [Example 219, N-((S)-1-(3-chlorophenyl)-2-hydroxyethyl)-1-(2-(((S)-1-hydroxybutan-2-yl)amino)-5-methylpyrimidin-4-yl)-1H-pyrrole-3-carboxamide] | 250 to 500 | 500 to 2500 | 100 to 250 | 
19 | Cc1cnc(N[C@H]2CCOC2)nc1-n1cnc(C(=O)NCc2cccc(Cl)c2CO)c1 [Example 270] | 100 to 250 | ≤ 100 | ≤ 100 | 
20 | Cc1cnc(Nc2ccnn2C)nc1-n1cnc(C(=O)N[C@H](CN)c2cccc(Cl)c2)c1 [Example 280, (S)-N-(2-amino-1-(3-chlorophenyl)ethyl)-1-(5-methyl-2-((1-methyl-1H-pyrazol-5-yl)amino)pyrimidin-4-yl)-1H-imidazole-4-carboxamide] | ≤ 100 | ≤ 100 | ≤ 100 | 
21 | Cc1cnc(NC2CCOCC2)nc1-n1cnc(C(=O)NCc2ccccc2CN)c1 [Example 283, N-(2-(aminomethyl)benzyl)-1-(5-methyl-2-((tetrahydro-2H-pyran-4-yl)amino)pyrimidin-4-yl)-1H-imidazole-4-carboxamide] | 500 to 2500 | > 2500 | 500 to 2500 | 
22 | Cc1cnc(NC2CCOCC2)nc1-n1cnc(C(=O)NCc2cccc(Cl)c2CN)c1 [Example 285, N-(2-(aminomethyl)-3-chlorobenzyl)-1-(5-methyl-2-((tetrahydro-2H-pyran-4-yl)amino)pyrimidin-4-yl)-1H-imidazole-4-carboxamide] | ≤ 100 | 100 to 250 | ≤ 100 | 
23 | Cc1cnc(NC2CCOCC2)nc1-n1cnc(C(=O)NCc2ccccc2CO)c1 [Example 287, N-(2-(hydroxymethyl)benzyl)-1-(5-methyl-2-((tetrahydro-2H-pyran-4-yl)amino)pyrimidin-4-yl)-1H-imidazole-4-carboxamide] | 500 to 2500 | 250 to 500 | ≤ 100 | 
24 | Cc1cnc(NC2CCOCC2)nc1-n1cnc(C(=O)N[C@H](CNC2CCOCC2)c2cccc(Cl)c2)c1 [Example 308, (S)-N-(1-(3-chlorophenyl)-2-((tetrahydro-2H-pyran-4-yl)amino)ethyl)-1-(5-methyl-2-((tetrahydro-2H-pyran-4-yl)amino)pyrimidin-4-yl)-1H-imidazole-4-carboxamide] |  | 250 to 500 | > 2500 | 500 to 2500
25 | Cc1cnc(N[C@H]2CCOC2)nc1-n1cnc(C(=O)NCc2cccc(C#N)c2)c1 [Example 310, (S)-N-(3-cyanobenzyl)-1-(5-methyl-2-((tetrahydrofuran-3-yl)amino)pyrimidin-4-yl)-1H-imidazole-4-carboxamide] |  | > 2500 | > 2500 | > 2500
